Results on 3 compounds are retold here after patent publication US6969590B2, “Use of a polypeptide for treatment of pruritus in animals” (Zengen, Inc., priority 2001, dated 2005).

The test system of experiment [1] is carrageenan-induced swelling in rat paws. Nature of the experiment: Rat paw edema test. It counts as in vivo, Sprague-Dawley rats. As to the method: A second in vivo bioassay for anti-inflammatory activity was conducted in which the action of the tripeptide was compared to that of hydrocortisone. In this assay, the two agents were given at similar doses and tested for their independent ability to inhibit carrageenan-induced swelling in rat paws. This assay, the rat paw edema test, was conducted generally as it is typically performed in the art, for example, as described by Winter et al. (1962), Proc. Soc. Exp. Biol. Med., 111:544 or in U.S. Pat. No. 4,150,137. Briefly, the assay was performed as follows. Each of twenty-four male Sprague-Dawley rats was assigned to one of four groups: Tripeptide treatment and controls (matched according to body weight and initial paw volume), hydrocortisone treatment and matched controls. The volume of the right rear paw of the test and control animals was determined using standard procedures and a mercury displacement volumetric technique. […] One hour later 0.5 ml of 1% lambda carrageenan in saline solution was injected into the right rear paw of the animals and the paw volume was again recorded (baseline measure). For comparison of the effects of the two treatments, paw volume of experimental animals measured at hourly intervals was expressed as a percentage of the volume change of their respective matched controls.

The test system of experiment [2] is inflammation induced in the hind paw. The experiment in a line: Kappa carrageenan-induced hind paw inflammation, spinal cord intact or transected. The format is in vivo, BALB/c mice. As to conditions: given intraperitoneally, spinal cord transection. As to the method:
Because surgical dissection of trigeminal structures that innervate the ear of the mouse is very difficult, tests to learn whether descending neural pathways are essential to the anti-inflammatory activity of centrally administered α-MSH peptides were performed in mice with inflammation induced in a hind paw. In these experiments, each animal was anesthetized with pentobarbital sodium solution as above. Baseline footpad thickness of both hind paws was measured with a spring-loaded micrometer (Swiss Precision Instruments, Los Angeles, Calif.). Paw thickness was expressed in units of 10^−3 cm; average thickness of unstimulated paws was 171.5×10^−3 cm across shipments of animals. Kappa carrageenan (Sigma) dissolved in saline (0.05%, 20 μl) was injected (28 gauge allergy test syringe) into one footpad, and saline (20 μl) was injected into the other. For the analyses, the increase in thickness of the control saline-injected paw of each animal was subtracted from that of the carrageenan-injected paw, to eliminate the influence of mechanical injury and volume of the injected fluid. To be certain that mice with severed spinal cords can react to anti-inflammatory agents, prednisolone (2.5 mg/mouse (IP injection)) was administered to 10 mice with spinal transection and inflammation induced by carrageenan. Treatment with the locally acting steroid reduced swelling up to 29% (average, relative to saline controls) at 4.5 h. after carrageenan.
However, a standardized crushing of lumbar vertebrae with a hemostat was effective in severing the cord; no deaths were caused by this treatment. […] The experiments were limited to 4.5 h to reduce problems of bowel and bladder dysfunction. Immediately after the 4.5 h measurements all mice were killed with an overdose of sodium pentobarbital.
Because of the size of the experiments and the requirement for several shipments of animals over time, several experiments were performed, each with complete treatment and control groups drawn from the same shipment of mice. Omnibus analysis of variance techniques (Dynastat, Washington, D.C.) were used to test overall differences among group means. Tukey's protected t test was used to compare individual means. Probability values of <0.05 were considered significant.

Experiment [3] has as its system inflammation induced in the ear by picryl chloride. The experiment in a line: Picryl chloride-induced ear swelling. It counts as in vivo, BALB/C mice. As to the method: Female BALB/C mice (Simmons Laboratories), 7 weeks old, were housed at 23-25° C. in groups of no more than 5 per cage [28 cm (L)×18 cm (W)×13 cm (H)]. They were allowed to acclimatize to standard lighting and temperature conditions for at least 1 week, with food and water available ad lib, before the experiment began. Five to ten animals were randomly assigned to each treatment group each test day, and all experiments were repeated at least twice to confirm reproducibility. To reduce error due to slight differences in responses to the irritant of animals from different shipments, tests of each agent were performed as separate experiments in which experimental and control animals were drawn from the same shipment.
In the experiments each animal was anesthetized with 1 mg of pentobarbital sodium solution (50 mg/kg, Nembutal, Abbott Laboratories, Abbott park, Ill.). Baseline ear thickness was measured for both ears with a spring-loaded micrometer (Swiss Precision Instruments, Los Angeles, Calif.). Ear thickness was expressed in units of 10^−3 cm; the average thickness of unstimulated ears was approximately 25-30×10^−3 cm. After baseline measurements were taken, one of six solutions was injected IP. Control animals received 0.2 ml of sterile saline, and experimental animals received Ac-α-MSH (11-13)-NH2, i.e., Ac-Lys-Pro-Val-NH2), Ac[D-Lys^11] α-MSH (11-13)-NH2, Ac[D-Pro^12] α-MSH (11-13)-NH2, Ac[D-Val^13] α-MSH (11-13)-NH2 or Ac-[D-Lys^11, D-Val^13] α-MSH (11-13)-NH2 in the same volume of saline. […] The doses of the tripeptides were 10 μg ([…]), 20 μg ([…]), 40 μg (1.04×10^−7 M), and 80 μg (2.08×10^−7 M). Immediately after saline or α-MSH injection, a micropipette was used to coat both sides of each ear with 10 μl (40 μl per mouse) of a 0.5% picryl chloride (Polysciences, Warrington, Pa.) solution in acetone.
Ear thickness was remeasured 3 and 6 h after picryl chloride application. Swelling was determined by subtracting baseline thickness from the measurements for each ear at 3 and 6 h. The differences for both ears were then averaged for the final analysis.
Repeated-measure ANOVA techniques were used to determine if there was an overall difference among group data for each peptide tested in separate experiments. In those cases in which the ANOVA yielded significant results, Dunnett's test was then used to compare the effects of peptide doses with control (saline) data for each of the two time periods, 3 and 6 h.

Experiment [4] relates to histamine-induced blue weal formation. The experiment in a line: Sparrow/Wilhelm assay: histamine-induced blue wheals. The format is in vivo, New Zealand white rabbits. As to conditions: for relative intensity of blue wheals, experimental vs control: scored 30 minutes after histamine. From the text: This model relies on the principal that localized, subcutaneous injections of histamine will result in a localized increase in capillary permeability. When the test animal has been pretreated with blue dye intravenously, the localized histamine injections will elicit blue-colored wheals around the injection site. Thus, by pre-administration of an effective anti-inflammatory agent the blue color of the histamine-induced wheals will be much less pronounced, with the amount of color reduction being dependent on the relative amount and/or potency of the anti-inflammatory agent used.
Non-molting New Zealand white rabbits were used for the Sparrow/Wilhelm assay. The skin of the rabbits back was closely clipped 1-2 days previous to the experiment, but not depilated, and the rabbits were kept warm until tested. Various amounts of the protected tripeptide Ac-Lys-Pro-Val-NH2 were injected intravenously into an ear vein approximately 15 minutes prior to intravenous injection of blue dye. Control rabbits received sham injections. Fifteen minutes following injection of the agent or sham, the rabbits received approximately 30 mg/kg of Pontamine blue dye as a 2.5% solution in 0.45% saline, into an exposed vein. Immediately following dye injections, histamine was injected intradermally in a 0.10 ml volume (1.25 mg histamine 0.1 ml volume) at several sites on each side of the spine. In all, one vertical row of six injections were made on each side of the spine. The relative intensity of the resultant blue wheals were scored by an independent observer 30 minutes after histamine injection.

A further experiment has as its system NO2^−. The experiment in a line: Nitrite (NO) production by activated N9 microglia. As to conditions: microglia stimulated with LPS+IFN-γ for 24 hr, micromolar concentrations. It counts as cell-based, murine. As to the method: (§1) The N9 clone of murine microglial cells was obtained by immortalization of embryonic brain cultures with the 3RV retrovirus carrying an activated v-myconcogene. N9 cells were cultured in T-75-cm^2 culture flasks (Corning, Cambridge, Mass.) and maintained at 37° C. in a humidified incubator under 5% CO2 atmosphere in RPMI 1640 supplemented with 2 mM L-glutamine, 50 U/mL penicillin G, 50 μg/mL streptomycin sulfate (GIBCO-BBL, Paisley, UK), and 10% heat-inactivated fetal bovine serum (FBS, Hyclone Lab, Inc., Logan, Utah) until experiments were performed. Cells were used between the first and the tenth passage.
(§2) Sub-confluent microglial cells were washed twice with phosphate-buffered saline (PBS) and incubated with trypsin 0.025% and ethylenediaminetetraacetate (EDTA) 0.02% without calcium and magnesium for 3 min. at 37° C. to detach the cells from the culture flask. Cells were then resuspended in medium and incubated in 24-well tissue-culture plates at a concentration of 2×10^5 cells/mL for 16 h in a humidified incubator (37° C., 5% CO2). Growth medium was removed and cell monolayers were stimulated with 10 ng/mL lipopolysaccharide (LPS, from Escherichia coli 055:B5, Sigma Chemical Co., St. Louis, Mo.) plus 1 U/ml, murine IFN-γ (Sigma). To test effects of melanocortin peptides, concentrations (1, 10, 25, 50 and 100 μM) of α-MSH (1-13), α-MSH (11-13), and ACTH (1-24) (Sigma) were dissolved in medium and added to wells 10 min before treatment with LPS+IFN-γ. […] Viability of cells was assessed by trypan blue exclusion for each experimental condition; it was consistently >98%. […]
NO is rapidly oxidized to nitrite (NO2) in culture medium, and nitrite concentration is an indicator of NO production. […] Samples were incubated at room temperature for 10 min and absorbency was measured at 540 nm with the use of a microplate reader. Nitrite concentrations were calculated using a sodium nitrite standard curve.
(§3) Effects of melanocortin peptides on cytokine and NO production were evaluated by repeated measures analysis of variance followed by Dunnet's test for specific comparisons. […]

The subject of a further experiment is TNF-α and iNOS mRNA. The experiment in a line: Northern blot of TNF-α and iNOS mRNA in activated microglia. The format is cell-based, murine. As to the method:
Total cellular RNA was extracted from 10^6 adherent microglial cells plated in six-well tissue culture plates (Corning). Electrophoresis of RNA samples (10 μg/lane) was performed in 1% agarose/2.2 M formaldehyde gels and the gels subsequently blotted onto nylon filters by capillary action and baked for 2 h before prehybridization. The cDNA fragments encoding murine TNF-α and mouse macrophage iNOS were ^32P-labeled using the Ready-To-Go DNA Labeling Kit (Pharmacia, Uppsala, Sweden) before hybridization of nylon filters and autoradiography. Blots were subsequently rehybridized with human glyceraldehyde-3-phosphate dehydrogenase (G-3-PDH) cDNA probe as an internal control (Clontech Laboratories, Inc., Palo Alto, Calif.).

The next experiment deals with TNF-α. The experiment in a line: TNF-α production by activated N9 microglia. The format is cell-based, murine. Conditions: microglia stimulated with LPS+IFN-γ for 24 hr, micromolar concentrations. As to the method:
as §1, §2
(§4) TNF-α bioactivity was measured in supernatants of cell cultures by standard cytotoxicity assay using L929 cells and recombinant human TNF-α (Sigma) as standard. […] IL-6 was measured using a commercial murine enzyme-linked immunosorbent assay (ELISA: RPN 2714, Amersham, Little Chalfont, UK).
as §3

The test system of the next experiment is IL-6. Nature of the experiment: IL-6 production by activated N9 microglia. Conditions: microglia stimulated with LPS+IFN-γ for 24 hr, micromolar concentrations. It counts as cell-based, murine. As to the method: as §1, §2, §4, §3

Turning to `C[C@]12CCC(=O)C=C1CC[C@@H]1[C@@H]2[C@@H](O)C[C@@]2(C)[C@H]1CC[C@]2(O)C(=O)CO` [hydrocortisone, reference compound], the “inhibition of paw swelling in the first hour” value in experiment [1] (100 mg/kg intraperitoneal, first hour) is “markedly inhibited swelling”.

“Ac-Lys-Pro-Val-NH2 [Ac-α-MSH(11-13)-NH2, protected tripeptide]”: in experiment [2], the “anti-inflammatory effect after spinal cord transection” value is listed as “marked inhibitory effect on inflammation”. The “% Inhibition of swelling” value was found to be 26% in experiment [3] (10 μg IP, 3 h); 25% in experiment [3] (10 μg IP, 6 h); 21% in experiment [3] (20 μg IP, 3 h); 19% in experiment [3] (20 μg IP, 6 h); 33% in experiment [3] (40 μg IP, 3 h); 26% in experiment [3] (40 μg IP, 6 h). Further, the “% Inhibition of swelling” value is reported as 50% in experiment [3] (80 μg IP, 3 h) and 42% in experiment [3] (80 μg IP, 6 h). For the same compound, the “overall effect on ear inflammation (ANOVA)” value in experiment [3] (10-80 μg IP, 3 and 6 h) is given as “inhibited acute inflammation”. Further, in experiment [1] (100 mg/kg intraperitoneal each, hourly, after the first hour), the “inhibition of paw edema compared with hydrocortisone” value is “no significant difference in the inhibition of paw edema”. Moreover, the “relative intensity of blue wheals, experimental vs control” value in experiment [4] (0.625 ug/kg intravenously) is given as “No difference”; in experiment [4] (1.25 ug/kg intravenously), “E lighter than C”; in experiment [4] (5 ug/kg intravenously), “E lighter than C”; in experiment [4] (10 ug/kg intravenously), “E lighter than C”. For the same compound, in experiment [4] (intravenous), the “lowest intravenous dose with appreciable reduction in blue weal formation” value is listed as 1.25 ug tripeptide per kg body weight.

For the compound “ACTH (1-24): melanocortin peptide ACTH (1-24) (SYSMEHFRWGKPVGKKRRPVKVYP; Corticotropin; UniProt P01189 138-161, looked up, fragment) [reference compound]”, the “reduction of production of NO2^−” value in the experiment with NO2^− was 41%. Besides, the “mRNA for TNF-α and iNOS (Northern blot)” value with TNF-α and iNOS mRNA was “inhibition of mRNA transaction for TNF-α and iNOS”. Besides, in the experiment with TNF-α, the “reduction of production of TNF-α” value amounted to 38%. In the experiment on IL-6, the “reduction of production of IL-6” value is 65%.
